Measured values published in the supplement of paper PMC10307832.

Legend:
Test in all cases: relative viability (nuclei count vs DMSO), 5 days (fraction); higher = more cells survive
[1] = compound: CC1=CC=C(C=C1)C(=O)CN2C3=C(CCCC3)SC2=N [Pifithrin_alpha] + Cc1nc(NC(=O)N2CCC[C@H]2C(N)=O)sc1-c1ccnc(C(C)(C)C(F)(F)F)c1 [Alpelisib] (partner 2 µM)
Procedure, shortened: (§1)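 Relative viability is defined as nuclei in treated wells over nuclei in vehicle wells. Duplicate plates were run and medians reported. Lung cancer cell lines in 1536-well plates were dosed by pin tool one day after seeding, with one drug or with a fixed anchor-drug dose plus five library-drug doses (not always all listed) in √10 steps, and nuclei were counted after 5 days.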

[2] = compound: CNC(=O)c1ccccc1Sc1ccc2c(/C=C/c3ccccn3)n[nH]c2c1 [Axitinib] + CC(=O)Nc1cccc(-n2c(=O)n(C3CC3)c(=O)c3c(Nc4ccc(I)cc4F)n(C)c(=O)c(C)c32)c1 [Trametinib] (partner 0.02 µM)
Procedure, shortened: as §1

[3] = compound: CNC(=O)c1ccccc1Sc1ccc2c(/C=C/c3ccccn3)n[nH]c2c1 [Axitinib] + O=C(c1cc(Cc2n[nH]c(=O)c3ccccc23)ccc1F)N1CCN(C(=O)C2CC2)CC1 [Olaparib] (partner 8 µM)
Procedure, shortened: as §1

[4] = compound: Nc1nc(Nc2ccc3c(c2)CC[C@@H](N2CCCC2)CC3)nn1-c1cc2c(nn1)-c1ccccc1CCC2 [Bemcentinib] + CS(=O)(=O)CCNCc1ccc(-c2ccc3ncnc(Nc4ccc(OCc5cccc(F)c5)c(Cl)c4)c3c2)o1 [Lapatinib] (partner 2 µM)
Procedure, shortened: as §1

Cell Line | relative viability ([1]; first compound 1 µM) | relative viability ([1]; first compound 3.162 µM) | relative viability ([1]; first compound 10 µM) | relative viability ([1]; first compound 100 µM) | relative viability ([2]; first compound 0.005 µM) | relative viability ([2]; first compound 0.01581 µM) | relative viability ([2]; first compound 0.05 µM) | relative viability ([2]; first compound 0.1581 µM) | relative viability ([2]; first compound 0.5 µM) | relative viability ([3]; first compound 0.005 µM) | relative viability ([3]; first compound 0.01581 µM) | relative viability ([3]; first compound 0.05 µM) | relative viability ([3]; first compound 0.1581 µM) | relative viability ([3]; first compound 0.5 µM) | relative viability ([4]; first compound 0.04 µM) | relative viability ([4]; first compound 0.1265 µM) | relative viability ([4]; first compound 0.4 µM) | relative viability ([4]; first compound 1.265 µM) | relative viability ([4]; first compound 4 µM) | relative viability ([1]; first compound 31.62 µM)
HCC-78 | 0.295 | 0.337 | 0.352 | 0.296 | 0.955 | 0.683 | 0.518 | 0.615 | 0.986 | 0.925 | 0.814 | 0.674 | 0.776 | 0.813 | 0.113 | 0.443 | 0.693 | 0.281 | 0.0037 | 
HCC-366 | 0.282 | 0.3 | 0.329 | 0.234 | 0.415 | 0.417 | 0.391 | 0.359 | 0.333 | 0.362 | 0.33 | 0.422 | 0.304 | 0.37 | 0.994 | 1.16 | 1.51 | 1.06 | 1.03 | 
HCC-827 | 0.878 | 1.03 | 0.919 | 0.823 | 0.572 | 0.519 | 0.552 | 0.548 | 0.518 | 0.617 | 0.566 | 0.66 | 0.62 | 0.812 | 0.179 | 0.206 | 0.216 | 0.226 | 0.194 | 0.626
HOP-62 | 1.18 | 1.1 | 0.848 | 0.931 | 0.404 | 0.351 | 0.404 | 0.431 | 0.454 | 0.392 | 0.443 | 0.321 | 0.569 | 0.682 | 1.17 | 0.977 |  | 1.05 | 0.959 | 0.62
IA-LM | 0.917 | 0.757 | 0.356 | 0.423 |  |  |  |  |  | 1.07 | 0.855 | 0.821 | 0.808 | 0.832 | 0.661 | 0.814 | 1.13 | 0.832 | 0.775 | 0.442
LC-2-ad | 0.898 | 0.799 | 0.791 | 0.682 | 0.953 | 0.864 | 0.885 | 0.873 | 0.871 | 0.735 | 0.693 | 0.738 | 0.708 | 0.76 | 0.921 | 1.09 | 0.979 | 0.943 | 0.995 | 0.56
LCLC-97TM1 |  | 0.226 | 0.224 | 0.236 | 0.18 | 0.212 | 0.184 | 0.202 | 0.187 | 0.433 | 0.436 | 0.446 | 0.37 | 0.496 | 0.777 | 1.11 |  | 1.12 | 0.941 | 
LCLC-103H | 0.971 | 0.992 | 1.1 | 0.939 | 0.737 | 0.651 | 0.685 | 0.705 | 0.693 | 0.803 | 0.784 | 0.753 | 0.881 | 0.824 |  |  |  |  |  | 0.931
LK-2 | 1.06 | 1.03 | 1.02 | 1.56 | 0.773 | 0.631 | 0.515 | 0.726 | 0.547 | 0.65 | 0.609 | 0.762 | 0.712 | 0.545 | 0.869 | 0.908 | 1.07 | 0.838 | 0.891 | 
